Experimental data published in patent US8242101B2, “Leukemia treatment method and composition” (University of South Florida, priority 2003, dated 2012).
Entries after “also recorded” stand apart in the source; their conditions may differ.

Tests used:
[1] = system: MV4-11 (MV) cells; assay: Cell cycle status and apoptosis of MV4-11 cells; type: cell-based, human
[2] = system: p-FLT-3, p-AKT and p-ERK1/2; assay: Western analyses of FLT-3, AKT, ERK1/2 and their phospho forms in MV cells; type: cell-based, human
[3] = system: FLT-3 and p-FLT-3 on MV cells; assay: Flow cytometry (FCM) assay of surface FLT-3 and p-FLT-3 on MV cells; type: cell-based, human; details: for surface expression of p-FLT-3: FCM
Protocol: (§1) Simultaneous measurement of surface FLT-3 kinase and Phospho (P Y591) FLT-3 kinase in Acute Leukemic cells using a flow cytometric assay.
(§2) Leukemic cells are harvested by spinning at 1000 rpm at 4 deg for 5 minutes. The cells are washed twice with cold PBS (1×). Equal numbers of cells are utilized for FLT-3 and p-FLT-3 analyses.
(§3) In the assay to detect surface FLT-3 expression, shown in FIG. 8, the cells 10 are incubated on ice for thirty minutes 20 in PBS (1×) 30 containing 3% FBS (blocking buffer) 40. Subsequently, the cells are washed twice with cold PBS (1×). Cells are then incubated with either 0.2 Tg of anti-FLT-3 antibody 50 (sc-19635, Santa Cruz Biotechnology, Calif.) or concentration-matched isotype, control antibody (IgG1, Caltag, Burlingame, Calif.) 60 diluted in the blocking buffer and kept on ice for one hour 70. Cells are then washed twice in PBS (1×) and incubated in FITC-conjugated secondary antibody (Molecular Probes, Eugene, Oreg.) 80 for additional thirty minutes on ice 90. The cells are then rinsed twice with PBS (1×) and resuspended in 400 TL PBS (1×) 100. The fluorescence is measured by FACScan Cytometer (San Jose, Calif.).
To determine the p-FLT-3 expression, leukemia cells are fixed and permeabilized. Referring now to the flowchart in FIG. 9, cells 10 are fixed in 1% formaldehyde 20 at 37 degrees for ten minutes 30, followed by incubation on ice for ten minutes. Cells are then spun down and permeabilized by resuspending them in ice cold 90% methanol 40 for thirty minutes. Following this, cells are washed twice in the blocking buffer (PBS (1×) containing 0.5% BSA) 50 and then incubated in the blocking buffer for an additional ten minutes at room temperature (RT) 60. Next, to the cells, either 0.4 Tg of monoclonal antibody to p-FLT-3 (Cell Signaling, Beverley, Mass.) 70 or isotype control antibody (IgG2b, Caltag, Burlingame, Calif.) 80 is added and cells are then incubated at RT for thirty minutes 90. […] After thirty minutes of incubation 110, cells are washed twice with PBS (1×) and resuspended in 400 TI of PBS (1×) 120 and analyzed by FACScan 130.

[4] = system: histone H3 and H4, p21; assay: Histone acetylation and p21 levels in AML cells; type: cell-based, human; details: LAQ824 10 to 100 nM
[5] = system: FLT-3 and p-FLT-3 in RS cells; assay: FLT-3 and p-FLT-3 levels in RS cells by Western and FCM analyses; type: cell-based, human
Protocol: as §1, §2, §3
To determine the p-FLT-3 expression, leukemia cells are fixed and permeabilized. […] After thirty minutes of incubation 110, cells are washed twice with PBS (1×) and resuspended in 400 TI of PBS (1×) 120 and analyzed by FACScan 130.

[6] = system: Hsp-90; assay: Hsp-90 acetylation, ATP binding and chaperone activities; type: cell-based; details: earlier work of the inventors

Compound	apoptosis ([1]; MV4-11 cells, single agent, FIG. 2 and FIG. 3)	levels of p-FLT-3, p-AKT and p-ERK1/2 ([2]; LAQ824 20 to 100 nM)	FLT-3, P-AKT and P-ERK levels ([2]; MV4-11 cells, immunoblots, FIG. 3)	surface expression of p-FLT-3 [3]	FLT-3 and p-FLT-3 levels ([3]; Western and FCM analyses)	acetylation of histone H3 and H4 [4]	p21 levels [4]	FLT-3 and p-FLT-3 levels [5]	acetylation of Hsp-90, its ATP binding and chaperone activities [6]	apoptosis, MV compared with RS cells ([1]; 20 to 200 nM PKC412, dose-dependent)	cell cycle G1 phase accumulation ([1]; exposure to 20 to 200 nM PKC412)	p-FLT-3, p-AKT and p-ERK1/2 levels ([2]; Western analyses, 20 to 200 nM PKC412)
O=C(/C=C/c1ccc(CN(CCO)CCc2c[nH]c3ccccc23)cc1)NO [LAQ824]	induces apoptosis of MV4-11 cells; also recorded: inducing apoptosis of MV4-11 cells	down regulated the levels of p-FLT-3, p-AKT and p-ERK1/2	attenuates FLT-3, P-AKT, and P-ERK	attenuates cell surface p-FLY-3 expression	attenuated both FLT-3 and p-FLT-3 levels in a dose-dependent manner	induced the acetylation of histone H3 and H4	increases p21; also recorded: increased p21 levels	attenuated both FLT-3 and p-FLT-3 levels in a dose-dependent manner	induces acetylation of Hsp-90 and inhibition of its ATP binding and chaperone activities			
CO[C@@H]1[C@H](N(C)C(=O)c2ccccc2)C[C@H]2O[C@]1(C)n1c3ccccc3c3c4c(c5c6ccccc6n2c5c31)C(=O)NC4 [PKC412]				inhibited the surface expression of p-FLT-3						significantly more apoptosis of MV than RS cells	induced cell cycle G1 phase accumulation	marked attenuation of p-FLT-3, p-AKT and p-ERK1/2
